Measured values from ChEMBL document CHEMBL1158751, “Isoneocryptolepine, a synthetic indoloquinoline alkaloid, as an antiplasmodial lead compound” (J Nat Prod, 2005).
Structures can show the parent of a compound that is named as a salt. Each block holds one compound with its values, some of them ahead of it.

How the values were obtained:
[1] = test system: Mus musculus; assay: Toxicity in Plasmodium berghei ANKA S infected NMRI mice (Mus musculus) assessed as death at 50 mg/kg, intraperitoneally twice a day after day 1 post-infection; format: organism-based; design: dose 50 mg/kg, route intraperitoneal; conditions: in vivo, ip
[2] = test system: Trypanosoma brucei rhodesiense; assay: Antitrypanosomal activity against Trypanosoma brucei rhodesiense; format: functional, organism-based
[3] = test system: Trypanosoma cruzi; assay: Antitrypanosomal activity against Trypanosoma cruzi; format: functional, organism-based
[4] = test system: Leishmania donovani; assay: Antileishmanial activity against Leishmania donovani; format: functional, organism-based
[5] = test system: L6; assay: Cytotoxicity against rat L6 cells; format: cell-based
[6] = Selectivity index, IC50 for rat L6 cells to IC50 for chloroquine and pyrimethamine-resistant Plasmodium falciparum K1; format: functional
[7] = test system: Plasmodium berghei; assay: Antiplasmodial activity against Plasmodium berghei ANKA S infected NMRI mice (Mus musculus) as reduced parasitaemia at 50 mg/kg subcutaneous dose for 4 days; format: functional; design: scale not given: the % may be the effect or the level left
[8] = test system: Plasmodium falciparum; assay: microbe, parasite or virus in culture; conditions: K1, 3 h
[9] = Displacement of methyl green dye from DNA

SMILES: Cn1c2ccccc2c2c[n+](C)c3ccccc3c21.[I-]
Activity [1]: Toxic
IC50 [2]: 0.37 µM
IC50 [3]: 236 µM
IC50 [4]: 1.15 µM
IC50 [5]: 12.7 µM
Ratio IC50 [6]: >700
Activity [7]: 38.9%
IC50 [8]: 0.017 µM

IC50 [2]: 96.4 µM
IC50 [3]: 84.4 µM
IC50 [4]: > 65 µM
SMILES: Cn1c2c3ccccc3nc-2c(-n2c3ccccc3c3nc4ccccc4cc32)c2ccccc21
IC50 [5]: 165 µM

SMILES: C[C@@H]1CC[C@H]2[C@@H](C)C(=O)O[C@@H]3O[C@@]4(C)CC[C@@H]1[C@]32OO4 [ARTEMISININ]
IC50 [8]: 0.042 µg/mL

SMILES: O=C(Cn1ccnc1[N+](=O)[O-])NCc1ccccc1 [BENZNIDAZOLE]
IC50 [3]: 1.5 µg/mL

SMILES: Cn1c2c3ccccc3nc-2c(-c2c3nc4ccccc4c-3n(C)c3ccccc23)c2ccccc21 [BISCRYPTOLEPINE]
IC50 [2]: 2.57 µM
IC50 [3]: 3.48 µM
IC50 [4]: 8.93 µM
IC50 [5]: 13.6 µM
IC50 [8]: 0.27 µM

SMILES: CCN(CC)CCCC(C)Nc1ccnc2cc(Cl)ccc12 (centres undefined) [CHLOROQUINE]
Activity [7]: 99.9%

IC50 [9]: 65 µM
SMILES: C[n+]1c2ccccc2cc2[n-]c3ccccc3c21 [CRYPTOLEPINE HYDROCHLORIDE]
IC50 [5]: 1.12 µM

IC50 [9]: 119 µM
SMILES: Cn1cc2c3ccccc3nc-2c2ccccc21 [ISOCRYPTOLEPINE HYDROCHLORIDE]
IC50 [5]: 1.19 µM

SMILES: C[n+]1cc2[nH]c3ccccc3c2c2ccccc21.[Cl-] [ISONEOCRYPTOLEPINE HYDROCHLORIDE]
IC50 [9]: 124 µM
IC50 [5]: 4.32 µM
Ratio IC50 [6]: 20
Activity [7]: 10.3%

SMILES: Nc1nc(N)nc(Nc2ccc([As]3SCC(CO)S3)cc2)n1 (centres undefined) [MELARSOPROL]
IC50 [2]: 0.0038 µg/mL

IC50 [4]: 0.56 µg/mL
SMILES: CCCCCCCCCCCCCCCCOP(=O)([O-])OCC[N+](C)(C)C [MILTEFOSINE]

IC50 [9]: 93 µM
SMILES: Cn1c2nc3ccccc3c-2cc2ccccc21 [NEOCRYPTOLEPINE HYDROCHLORIDE]
IC50 [5]: 3.24 µM

SMILES: COc1cc([C@@H]2c3cc4c(cc3[C@H](O)[C@H]3COC(=O)[C@H]23)OCO4)cc(OC)c1OC [PODOFILOX]
IC50 [5]: 0.018 µg/mL

IC50 [9]: > 360 µM
SMILES: C=C[C@H]1CN2CC[C@H]1C[C@H]2[C@H](O)c1ccnc2ccc(OC)cc12 [QUININE]
